# Experimental data reported in patent US10253368B2, “Molecular signatures of ovarian cancer” (Cedars-Sinai Medical Center, priority 2012, dated 2019).
# Columns and labels:
# [1] = tested on: ovarian stromal cell line TRS3; assay: TGFβ1 induction of the 10 poor outcome signature genes (mRNA) in TRS3 cells; format: cell-based, human
# Excerpt: FIG. 13(A) to FIG. 13(C). Regulation of the poor outcome signature genes by TGFβ signaling. (A) Ingenuity Pathway Analysis of the 61 genes present in at least two of the three discovery signatures of poor outcome. Genes that are present in all three discovery signatures are circled in red. (B) Top upstream regulators of the 61 poor outcome genes. (C) Induction of the 10 poor outcome signature genes by TGFβ1 in the ovarian stromal cell line TRS3 and the ovarian cancer cell line OVCAR3. Cells were treated with TGFβ1 (10 ng/ml) for 48 hours (TRS3) or 1-3 hours (OVCAR3) with or without pre-treatment with the TGFβ1 receptor inhibitor, A83-01. Shown is the relative fold change of the mRNA levels compared to untreated control cells. […]
# (§1) To validate the predicted regulation of the poor outcome genes by TGFβ1, the Inventors treated the human ovarian stromal cell line TRS3 and the ovarian cancer cell line OVCAR3 with TGFβ1 and measured mRNA expression of the 10 poor outcome genes before and after TGFβ1 treatment.
# (§2) Importantly, The Inventors included the ovarian stromal cell line since many of our poor outcome genes are thought to be expressed in stromal cells. […] To further validate that this induction was mediated by TGFβ1 signaling, the Inventors measured expression of the 10 genes in cells pre-treated with the TGFβ1 receptor inhibitor A83-01 before adding TGFβ1.
# [2] = tested on: ovarian cancer cell line OVCAR3; assay: TGFβ1 induction of the 10 poor outcome signature genes (mRNA) in OVCAR3 cells; format: cell-based, human
# Excerpt: FIG. 13(A) to FIG. 13(C). Regulation of the poor outcome signature genes by TGFβ signaling. (A) Ingenuity Pathway Analysis of the 61 genes present in at least two of the three discovery signatures of poor outcome. Genes that are present in all three discovery signatures are circled in red. (B) Top upstream regulators of the 61 poor outcome genes. (C) Induction of the 10 poor outcome signature genes by TGFβ1 in the ovarian stromal cell line TRS3 and the ovarian cancer cell line OVCAR3. Cells were treated with TGFβ1 (10 ng/ml) for 48 hours (TRS3) or 1-3 hours (OVCAR3) with or without pre-treatment with the TGFβ1 receptor inhibitor, A83-01. Shown is the relative fold change of the mRNA levels compared to untreated control cells. Data are presented as the mean+/−SEM in triplicate samples. * indicates P<0.05. Data are representative of at least three independent experiments.
# FIG. 26. Induction of the 10 poor outcome signature genes by TGFβ1. OVCAR3 (OV3) cells were treated with 10 ng/ml TGFβ1 (B1) for either 1 hour or 3 hours with (OV3+B1+A) or without (OV3+B1) pre-treatment with the TGFβ inhibitor, A83-01.
# as §1, §2
# To learn more about the possible upstream regulators of the signature genes, the Inventors applied Ingenuity Pathway Analysis to the 61 signature genes in FIG. 12A and identified TGFβ1, TGFβ2, TGFβ3, SMAD3, and SMAD7 as top transcription factors regulating in expression of the signature genes.
# TGFβ = conditions: mouse xenografts; cited from earlier work
# LOX = conditions: xenograft and transgenic mouse models; cited from earlier work
# [3] = tested on: ADAM12 mRNA in TRS3 cells; assay: Quantitative real-time PCR of ADAM12 mRNA in TRS3 cells with recombinant TGFβ1; format: cell-based, human; conditions: recombinant TGFβ1 10 ng/ml, 48 hours
# Excerpt: FIG. 37(A) to FIG. 37(C). ADAM12 expression in epithelial and stromal cells in patient tumors and different culture conditions. (A) Representative localization of ADAM12 protein (immunohistochemistry; brown staining) and mRNA (in situ hybridization; brown dots) in ovarian tumor sections from HGSOC patients. Size bar for both photographs=50 μm. (B) and (C) Quantitative real-time PCR of the ADAM12 mRNA in the TRS3 ovarian stromal cell line and OVCAR3 ovarian cancer cell line alone or in co-culture in the presence or absence of 10 ng/ml of recombinant TGFβ1. TRS3 stromal cells and GFP-labelled OVCAR3 cancer cells were co-cultured using an insert (insert) or in direct contact (direct) for 48 hours and sorted by FACS before RNA isolation. The top cell line on the x axis represents the cell line from which RNA was isolated. The y axis indicates 2^−ΔCt value. Data indicates mean+/−SEM.
# The OVCAR3 ovarian cancer cell line was obtained from Dennis Slamon (University of California, Los Angeles) and its authenticity was confirmed by Laragen using the short tandem repeat (STR) method. […]
# Total RNA was extracted using the RNeasy mini kit (Qiagen) and was reverse-transcribed to cDNA using the QuantiTect Reverse Transcription Kit (Qiagen). […] The qRT-PCR reaction was performed using an iCycler thermo cycler (Bio Rad) and the data were analyzed by the 2-ΔCT method. […]
# osteosarcoma = conditions: mouse model of osteosarcoma; cited from earlier work
# [4] = pre-treatment before TGFβ1 10 ng/ml
compound,measurement,setting,value
"Cc1cccc(-c2nn(C(=S)Nc3ccccc3)cc2-c2ccnc3ccccc23)n1 [A83-01, reference compound]",TGFβ1-induced expression of the 10 genes in cells pre-treated with inhibitor,[1]; [4],abrogated
same,TGFβ1-induced expression of the 10 genes in cells pre-treated with inhibitor,[2]; [4],abrogated
same,Tumor growth,TGFβ,reduce tumor growth
N#CCCN [β-aminopropionitrile],Tumor metastasis,LOX,inhibited
"TGFβ1: recombinant TGFβ1 (Sigma), growth factor used at 10 ng/ml",mRNA expression of the 10 poor outcome genes after TGFβ1 treatment,"[1]; TGFβ1 10 ng/ml, 48 hours, most of the 10 genes",induced
same,mRNA expression of the 10 poor outcome genes after TGFβ1 treatment,"[2]; TGFβ1 10 ng/ml, 1-3 hours, most of the 10 genes",induced
same,Expression of COL5A1 and SNAI2,[2]; after 1 hour of treatment with TGFβ1,markedly induced
same,Expression of the remaining 8 genes,[2]; after 3 hours of treatment with TGFβ1,induced
same,Increase of ADAM12 levels in TRS3 cells,[3],approximately 10 fold
collagenase,Uptake and distribution of monoclonal antibodies,osteosarcoma,increased
